In paper PMC12040169 (PLOS Biology, 2025) one finds viability data, which are given here for 81 compounds.

One data set is described as follows: in vitro. Particulars: human, hela cells, % viability.
`Clc1cccc(CNc2cncc(-c3cccnc3)n2)c1` [CBK065283]: the viability at 28.5 h, 10 µM came to 104%.

`Cc1nc(C2CCN(C(=O)c3cscn3)CC2)c2sccn12` [CBK285240]: the viability at 28.5 h, 10 µM is 107%.

On to `CCCc1cc(=O)oc2cc(OCC(=O)OC(C)C)c(Cl)cc12` [CBK264459], for which the viability at 28.5 h, 10 µM came to 96.9%.

Regarding `Brc1ccc(Nc2ncnc3nc[nH]c23)cc1` [CBK287386], the viability at 28.5 h, 10 µM turned out to be 105%.

As for `CC(=O)NC(c1ccccn1)C1CCN(Cc2cccc(F)c2)CC1` (stereo not drawn) [CBK285461], the viability at 28.5 h, 10 µM was determined as 104%.

Regarding `Cc1ccc(S(=O)(=O)Nc2nnc(C3CCCCC3)s2)cc1` [CBK022722], the viability at 28.5 h, 10 µM worked out at 101%.

Regarding `NS(=O)(=O)c1ccc(CCNCC2CCCCC2)cc1` [CBK288467], the viability at 28.5 h, 10 µM came out at 92.5%.

For the compound `COc1cc(C(=O)O)cc2c1NC(c1ccc(C(=O)O)cc1)C1CC=CC21` (stereo not drawn) [CBK287018], the viability at 28.5 h, 10 µM worked out at 90.3%.

As to `O=C(C1C2CCCCC21)N1CCC(Oc2ccc(F)cc2)CC1` (stereo not drawn) [CBK282065], the viability at 28.5 h, 10 µM was found to be 92.1%.

Turning to `CC(C)n1cc(C(=O)N2CCCC(c3cc4ncccc4[nH]3)C2)cn1` (stereo not drawn) [CBK283419], the viability at 28.5 h, 10 µM worked out at 88.2%.

On to `COc1cc(C)ccc1S(=O)(=O)n1cnc2cc(C)c(C)cc21` [CBK287580], for which the viability at 28.5 h, 10 µM worked out at 61.3%.

`CC1CC1C(=O)NC1CCN(CC2(c3ccccc3)CC2)CC1` (stereo not drawn) [CBK285353]: the viability at 28.5 h, 10 µM was 83.2%.

On to `CC1CCC(C(N)=O)CN1c1cc(Br)ccn1` (stereo not drawn) [CBK304856], for which the viability at 28.5 h, 10 µM stood at 94.9%.

Turning to `Cc1ccc(C)c(CC(=O)N(CCC(=O)O)C2CCOCC2)c1` [CBK305469], the viability at 28.5 h, 10 µM worked out at 92.3%.

For `O=C1c2ccccc2C(=O)N1CSc1nnc(SCN2C(=O)c3ccccc3C2=O)s1` [CBK263694], the viability at 28.5 h, 10 µM is 96.9%.

As to `CCNS(=O)(=O)c1ccc2c(c1)N(Cc1nc(-c3ccco3)no1)CC2` [CBK306184], the viability at 28.5 h, 10 µM came out at 81.1%.

With `Cc1cc(NN(Cc2ccccc2)Cc2ccccc2)n2c(nc3ccccc32)c1C#N` [CBK262666], the viability at 28.5 h, 10 µM turned out to be 96.9%.

Take `N#CC1=C(N)Oc2cc(O)ccc2C1c1ccccc1` (stereo not drawn) [CBK219303]: the viability at 28.5 h, 10 µM worked out at 90.3%.

On to `COC(=O)c1ccc(CO)nc1` [CBK261376C], for which the viability at 28.5 h, 10 µM turned out to be 104%.

In the case of `CCc1ccc(CNC(=O)Cn2nnc(-c3ccc(CNCC4CC4)cc3)n2)cc1` [CBK161032C], the viability at 28.5 h, 10 µM came to 109%.

Turning to `Nc1c(-c2cc(F)cc(F)c2)cnc2ncccc12` [CBK083677], the viability at 28.5 h, 10 µM worked out at 111%.

Regarding `COC(=O)c1ccc(N2CCN(Cc3nc(C)c(C)o3)C(C)C2)cc1` (stereo not drawn) [CBK304903], the viability at 28.5 h, 10 µM worked out at 105%.

For `c1coc(CNc2nccnc2-c2cccs2)c1` [CBK036618], the viability at 28.5 h, 10 µM amounted to 85.5%.

As for `CCN(Cc1ccncc1)C(=O)NCc1ccc2c(c1)OCO2` [CBK145056], the viability at 28.5 h, 10 µM was 102%.

Consider `O=C(c1cccc(S(=O)(=O)N2CCOCC2)c1)N(Cc1ccc(F)cc1)Cc1ccco1` [CBK265885], for which the viability at 28.5 h, 10 µM was determined as 92.8%.

As to `O=C(CC1C(=O)Nc2ncnn21)Nc1ccccc1` (stereo not drawn) [CBK288071], the viability at 28.5 h, 10 µM is 90.7%.

Take `NC(=O)c1cccc(-c2nc(-c3cc4ccccc4o3)cnc2N)c1` [CBK063996]: the viability at 28.5 h, 10 µM worked out at 94.5%.

As for `O=C(CC(CN1CCN(CCN2CCCC2)CC1)C(=O)O)Nc1ccccc1` (stereo not drawn) [CBK286833], the viability at 28.5 h, 10 µM came to 109%.

For `CN(Cc1ccncc1)C(=O)CCn1c(C(F)F)cc2cccnc21` [CBK285070], the viability at 28.5 h, 10 µM is 81%.

`CC(=O)OC(COc1ccc2ccccc2c1Br)Cn1cnc2ccccc21` (stereo not drawn) [CBK266083]: the viability at 28.5 h, 10 µM came out at 84.6%.

Take `CC(Cc1cccs1)NC(=O)CSCc1ccco1` (stereo not drawn) [CBK283238]: the viability at 28.5 h, 10 µM amounted to 84.8%.

For the compound `OCCNc1nc(Nc2ccc(Br)cc2)nc2ccccc12` [CBK266724C], the viability at 28.5 h, 10 µM amounted to 87.7%.

Consider `O=C1NC(=O)C(c2ccccc2)(c2ccccn2)N1` (stereo not drawn) [CBK288455], for which the viability at 28.5 h, 10 µM came to 97%.

For the compound `CS(=O)(=O)N1CC[C@H](c2nc3cc(Cl)ccc3o2)C1` [CBK289370], the viability at 28.5 h, 10 µM was determined as 86%.

Turning to `O=S(=O)(Nc1ccc2nsnc2c1)c1cccc(C(F)(F)F)c1` [CBK062221], the viability at 28.5 h, 10 µM was determined as 106%.

With `COc1ccc(C(=O)Nc2nc3c(OC)ccc(C)c3s2)cc1` [CBK287615], the viability at 28.5 h, 10 µM stood at 110%.

With `Cc1ccc(OCCn2ccnc(N3CCNCC3)c2=O)c([N+](=O)[O-])n1` [CBK001381C], the viability at 28.5 h, 10 µM came out at 88.1%.

With `Cc1cc(N2C(=O)c3ccc(C(=O)O)cc3C2=O)ccc1NC(=O)c1cccs1` [CBK265415], the viability at 28.5 h, 10 µM came out at 92.8%.

Consider `Cc1cccc(-c2ncc(NC(=O)COc3ccc4ccccc4c3)nc2-c2ccc(N(C)C)cc2)c1` [CBK037575], for which the viability at 28.5 h, 10 µM stood at 111%.

Turning to `COc1ccccc1OCCO` [CBK000949], the viability at 28.5 h, 10 µM was found to be 98.3%.

Turning to `N#Cc1ccc(S(=O)(=O)N2CCC(OCc3ccncc3)C2)cn1` (stereo not drawn) [CBK305478], the viability at 28.5 h, 10 µM came out at 91%.

Consider `CCOC(=O)Cc1nc2ccccc2[nH]1` [CBK261674], for which the viability at 28.5 h, 10 µM came out at 102%.

As for `CCCc1oc(C(=O)O)cc1CN(CC)CC` [CBK267943C], the viability at 28.5 h, 10 µM came out at 92.1%.

As for `Cc1ccc(-c2nn(CCC#N)cc2C(=O)N2CCOCC2)cc1C` [CBK305940], the viability at 28.5 h, 10 µM amounted to 96.7%.

Turning to `CCOC(=O)c1cccc(-c2ccsc2)n1` [CBK149244], the viability at 28.5 h, 10 µM amounted to 97.6%.

In the case of `Cn1cnnc1SCC(C)(C)NS(=O)(=O)c1ccccc1` [CBK268276], the viability at 28.5 h, 10 µM amounted to 96.4%.

For `CCCC(=O)Nc1ccccc1NC(=O)c1ccc2c(c1)OCO2` [CBK265841], the viability at 28.5 h, 10 µM was 103%.

As to `CS(=O)(=O)Nc1nnc(C(F)(F)F)s1` [CBK038168], the viability at 28.5 h, 10 µM was 97.6%.

Turning to `FC(F)(F)c1cccnc1Sc1nc[nH]n1` [CBK115213], the viability at 28.5 h, 10 µM was 102%.

On to `CCC(C)Nc1nc(SCC(=O)OC)nc(N(C)C)n1` (stereo not drawn) [CBK269780], for which the viability at 28.5 h, 10 µM worked out at 95.2%.

Take `O=C(NCC1CCCO1)c1ccc(CNS(=O)(=O)c2cccc(Cl)c2)cc1` (stereo not drawn) [CBK267219]: the viability at 28.5 h, 10 µM is 88.6%.

As to `CC1CC(C)CN(C(=O)CN2C(=O)N3CCN=C3c3ccccc32)C1` (stereo not drawn) [CBK283960], the viability at 28.5 h, 10 µM came to 90%.

For `CCOc1ccc(Cl)cc1CNc1nnnn1CC` [CBK288128], the viability at 28.5 h, 10 µM came out at 92.9%.

Regarding `CN1c2ccccc2C(c2ccccc2)=NS1(=O)=O` [CBK022873], the viability at 28.5 h, 10 µM is 92.1%.

As for `CC(c1ccc(S(C)(=O)=O)cc1)N(C)C(=O)COc1ccc2ccccc2c1` (stereo not drawn) [CBK296738], the viability at 28.5 h, 10 µM is 103%.

On to `NC(CC(=O)O)c1ccc(F)c(Oc2ccccc2)c1` (stereo not drawn) [CBK286912], for which the viability at 28.5 h, 10 µM stood at 101%.

In the case of `COC(=O)C(N)c1c[nH]c2ccccc12` (stereo not drawn) [CBK089840], the viability at 28.5 h, 10 µM is 104%.

As for `Cc1nc(C(C)NC(=O)c2cc(C3CC3)nc3c2c(C)nn3C)cs1` (stereo not drawn) [CBK304779], the viability at 28.5 h, 10 µM was determined as 93.7%.

For the compound `Cc1cccn2c(=O)c(/C=C3\SC(=S)N(Cc4ccccc4)C3=O)c(NCCCn3ccnc3)nc12` [CBK263833], the viability at 28.5 h, 10 µM came out at 102%.

`O=C(Nc1ccc(Sc2ccc([N+](=O)[O-])cc2)cc1)c1ccc2c(c1)C(=O)N(c1ccccc1-c1ccccc1)C2=O` [CBK261340]: the viability at 28.5 h, 10 µM amounted to 77.1%.

Consider `COc1cc2cc3c(N)c(C(=O)NCc4cccs4)sc3nc2cc1OC` [CBK120215], for which the viability at 28.5 h, 10 µM amounted to 92%.

`Cc1ccc(C2(C(=O)N(C)CCN3CCCCC3)CCOCC2)cc1` [CBK281833]: the viability at 28.5 h, 10 µM was found to be 107%.

On to `O=C(NCCc1c[nH]c2ccccc12)c1nn(-c2ncccn2)c2ccccc12` [CBK048496], for which the viability at 28.5 h, 10 µM is 77.7%.

On to `CC(=O)NCCn1cc2c(n1)[C@H]1CN(C(=O)C(C)C)C[C@H]1CC2` [CBK284571], for which the viability at 28.5 h, 10 µM is 93.3%.

Consider `CCc1nc2ccc(C(=O)NCc3ccc4c(c3)OCO4)cn2c1N(CCN(C)C)CC1CC1` [CBK145472], for which the viability at 28.5 h, 10 µM was found to be 97.1%.

Consider `O=C(c1ccc(S(=O)(=O)N2CCCCCC2)cc1)N1CCC(CN2C(=O)c3cccc4cccc(c34)C2=O)CC1` [CBK263835], for which the viability at 28.5 h, 10 µM worked out at 98.1%.

Take `O=C(Nc1nc2ccccc2[nH]1)c1ccncc1` [CBK288626]: the viability at 28.5 h, 10 µM was 95.3%.

Consider `CC1(C)CC(CC(=O)NN)(c2ccccc2)CCO1` (stereo not drawn) [CBK261358C], for which the viability at 28.5 h, 10 µM was 86.6%.

In the case of `C=CCN1C(=O)CC2(C1=O)C(=O)N(CCn1cnc3c1c(=O)n(C)c(=O)n3C)c1ccc(Cl)cc12` (stereo not drawn) [CBK075410], the viability at 28.5 h, 10 µM is 94.8%.

Regarding `COc1ccc(C(NC(=O)C2CCN(CCOc3ccc4ccccc4c3)CC2)c2ccccc2C)cn1` (stereo not drawn) [CBK148792], the viability at 28.5 h, 10 µM came to 73.1%.

Regarding `Cc1cnn(CC(=O)N2CCC(c3cc4ncccc4[nH]3)CC2)c1` [CBK284458], the viability at 28.5 h, 10 µM is 77.2%.

Consider `Cc1ccc(-c2nc3cc(Cl)ccc3o2)cc1NC(=S)NC(=O)c1cccc(Cl)c1` [CBK264022], for which the viability at 28.5 h, 10 µM is 108%.

`CCOC(=O)CN1C(=O)N2CCCN=C2c2ccc(Cl)cc21` [CBK284401]: the viability at 28.5 h, 10 µM is 77.8%.

For the compound `O=C(O)CCn1c(SCCc2ccccc2)nc2ccccc21` [CBK262384], the viability at 28.5 h, 10 µM worked out at 107%.

As to `COCc1cc(=O)n2ncc(-c3ccccc3)c2[nH]1` [CBK288168], the viability at 28.5 h, 10 µM amounted to 84.6%.

In the case of `Cc1noc(C)c1C(=O)Nc1cnc(-c2cccc(C(F)(F)F)c2)c(-c2cccnc2)n1` [CBK036727], the viability at 28.5 h, 10 µM worked out at 96.8%.

Consider `CCOc1ccccc1-c1ccccc1NC(=O)c1ccc2c(c1)ncn2C1CC1` [CBK285808], for which the viability at 28.5 h, 10 µM came out at 84.3%.

With `Cc1cccc(NC(S)=NCc2ccccn2)c1` [CBK264174], the viability at 28.5 h, 10 µM was determined as 104%.

With `CCOc1ccc(-c2csc(NC(=O)c3cccnc3)n2)cc1` [CBK094747], the viability at 28.5 h, 10 µM is 89.2%.

Still in this data set, the particulars now being: human, hela cells, % viability, bulk resorufin, single well.
As to `Cc1ccc(-c2oncc2C(=O)N2CCC(C#N)(c3ccccc3)CC2)cc1` [CBK149179], the viability at 28.5 h, 10 µM is 95.7%.

As for `Cc1cc(C)cc(N2C(=O)NC(=O)/C(=C\c3ccccc3Br)C2=O)c1` [CBK263588], the viability at 28.5 h, 10 µM was determined as 100%.
